We go through 6 molecules from patent US20260256721A1, “ANTI-COCCIDIAL COMPOSITION COMPRISING QUINIC ACID AND USES THEREOF” (priority 2023, published 2026).

Series [1] concerns Eimeria tenella protozoa (sporozoites). The experiment in a line: microbe, parasite or virus in culture. It counts as cell-based. The source says:
(§1) A certain amount of oocysts (eggs) of Eimeria tenella and Eimeria maxima protozoa (College of Veterinary Medicine, Gyeongsang National University, Korea) were put in a tube containing glass beads and crushed, and then, in order to remove crushed oocyst cell walls and other debris, internal sporocysts were purified using Percoll density gradient, and washed with a PBS solution. For excystation of internal sporozoites, reagents comprising sodium taurocholic acid (sigma aldirich, USA) and trypsin (Ginco, USA), respectively, were treated to Eimeria tenella and Eimeria maxima sporangia and they were incubated, and then washed with PBS (Phosphate-Buffered Saline) solution once and the protozoa were obtained.
Quinic acid (Sigma, Cas No. 77-95-2) at concentrations ranging from 0 to 1000 ppm was reacted with Eimeria tenella oocysts at 40° C. for 3 hours. Following this, only live protozoa (sporozoites) were counted by microscopy. The mortality rate (%) of the protozoa was measured for each substance treatment compared to the negative control group treated with PBS. The results, as shown in FIG. 1 and Table 2, confirmed the anti-coccidial efficacy of quinic acid depending on the concentration.
(§2) Then, the mortality rate (%) was measured when each substance was treated compared to a negative control group to which PBS was treated, and the result is shown in Table 3 below.
After reacting 0.1% (v/v) DMSO, quinic acid, chlorogenic acid, theogallin, and cryptochlorogenic acid, respectively, with Eimeria tenella protozoa at a concentration of 10 ppm at 40° C. for 3 hours, only living protozoa (sporozoites) were counted by microscopy. Then, the mortality rate (%) was measured when each substance was treated compared to a negative control group to which PBS was treated, and the result is shown in Table 5 below.
The Eimeria tenella protozoa were killed by treating the quinic acid or sugarcane extract up to 1000 ppm concentration at maximum, and the minimal treatment concentration showing a mortality rate of 50% or more against Eimeria tenella protozoa was shown in Table 6 below.

For series [2], the system named is Eimeria maxima protozoa (sporozoites). The experiment in a line: Direct killing effect against Eimeria maxima protozoa (live sporozoites counted by microscopy). It counts as cell-based. The following applies: 3 h, read-out: Mortality rate of Eimeria maxima orozites [Killed sporozoites %].
Source text: as §1, §2

Where [3] appears, read: Eimeria tenella, 3 h, read-out: Mortality rate of Eimeria tenella orozites [Killed sporozoites %].
[4] abbreviates: Eimeria tenella, 3 h, read-out: Mortality rate of Eimeria tenella sporozites [Killed sporozoites %].
[5] abbreviates: Eimeria tenella, each substance treated up to 1000 ppm, minimum concentration with mortality rate of 50% or higher, x not defined (Table 4).
Where [6] appears, read: Eimeria tenella, 3 h, read-out: The mortality rate.

Each structure is given as a SMILES string. Read-outs that look alike come from different tables or passages of the source.

As usually defined, the mortality is the percentage killed. In the case of `O=C(O)/C=C/c1ccc(O)c(O)c1` [Caffeic acid, caffeic acid, reference compound], the mortality at 10 ppm in series [1] (setting [3]) and in series [2] was 0% throughout.

As for `O=C(/C=C/c1ccc(O)c(O)c1)O[C@@H]1C[C@](O)(C(=O)O)C[C@@H](O)[C@H]1O` [Chlorogenic acid, chlorogenic acid, reference compound], the mortality at 10 ppm in series [1] (setting [3]), in series [1] (setting [4]) and in series [2] was 0% throughout. The “Minimum Dose for killed 50% sporozoite” value in series [1] (setting [5]) is on record as 500 ppm.

For `O=C(/C=C/c1ccc(O)c(O)c1)O[C@H]1[C@H](O)C[C@](O)(C(=O)O)C[C@H]1O` [Cryptochlorogenic acid, cryptochlorogenic acid, reference compound], in series [1] (10 ppm, 40° C., 3 hours, compared to PBS negative control (Table 5)), the “Mortality rate of Eimeria tenella sporozites [Killed sporozoites %]” value stood at 0%.

In the case of `COc1cc(/C=C/C(=O)O)ccc1O` [Ferulic acid, ferulic acid, reference compound], the mortality at 10 ppm in series [1] (setting [3]) and in series [2] was 0% in each case.

Regarding `O=C(O)[C@]1(O)C[C@@H](O)[C@@H](O)[C@H](O)C1` [Quinic acid, quinic acid], the mortality at 10 ppm in series [1] (setting [3]) was determined as 32%. Further, in series [1] (setting [4]), the mortality at 10 ppm worked out at 32%. Further, in series [1] (setting [6]), the mortality at 0.78 ppm stood at 7.4%, the mortality at 1.56 ppm is 14.9%, the mortality at 3.125 ppm worked out at 20.2% and the mortality at 6.25 ppm was found to be 25.5%. In series [1] (setting [6]), the mortality at 12.5 ppm was determined as 31.9%, the mortality at 25 ppm is 35.1%, the mortality at 50 ppm is 55.3% and the mortality at 100 ppm is 59.6%. In series [1] (setting [6]), the mortality at 250 ppm was 91.5%, the mortality at 500 ppm turned out to be 97.9% and the mortality at 1000 ppm was 100%. Besides, in series [1] (setting [5]), the “Minimum Dose for killed 50% sporozoite” value was 50 ppm. For the same molecule, in series [1] (Eimeria tenella, treated up to 1000 ppm at maximum, minimal concentration with mortality rate of 50% or more (Table 6)), the “Minimum Dose for killed 50% sporozoite” value is 50 ppm. In addition, the mortality at 10 ppm in series [2] is 34%.

On to `O=C(O)/C=C/c1cccc(O)c1` [m-coumaric acid, reference compound], for which the mortality at 10 ppm stood at 10.7% in series [1] (Eimeria tenella, 10 ppm, 40° C., 3 hours, compared to PBS negative control (Table 3), read-out: Mortality rate of Eimeria tenella orozites [Killed sporozoites %]) and 6.4% in series [2]. Further, in series [1] (setting [5]), the “Minimum Dose for killed 50% sporozoite” value was 500 ppm.
